# What was measured:
# [1] = Protein binding in rat serum; assay type: ADME, cell-free
# [2] = Protein binding in monkey serum; assay type: ADME, cell-free, Macaca mulatta; settings: rhesus monkey, read-out: PB (converted)
# [3] = Protein binding in human serum; assay type: ADME, cell-free; settings: read-out: PB (converted)
smiles,measurement,setting,value
COc1cc(-n2cnc3cc(-c4ccc(Cl)cc4)sc3c2=O)ccc1OC[C@H](O)C1CC1,PB,[1],99.8%
same,fraction unbound,[2],0.007
same,fraction unbound,[3],0.005
